Assay results from ChEMBL document CHEMBL3393044, “Amphirionin-2, a novel linear polyketide with potent cytotoxic activity from a marine dinoflagellate Amphidinium species” (Bioorg Med Chem Lett, 2015).
Converted amounts (≈) assume the structure as drawn. The source made the active and inactive calls. The calls are words filed in the database; no cut-off is given here.

Legend:
[1] = Cytotoxicity against human Caco2 cells after 72 hrs by WST-8 assay; format: functional, cell-based; conditions: Caco-2, 72 h
A549 = assay: Cytotoxicity against human A549 cells after 72 hrs by WST-8 assay; format: functional, cell-based; conditions: A549, 72 h
HeLa = assay: Cytotoxicity against human HeLa cells assessed as growth inhibition at 1 ug/ml after 72 hrs by WST-8 assay; format: functional; conditions: read-out: GI
P388 = assay: Antitumor activity against mouse P388 cells xenografted in CDF1 mouse at 0.5 mg/kg administered on day 1 and day 5 relative to control; format: functional
Homo sapiens = organism: Homo sapiens; assay: Binding affinity to actin (unknown origin) by surface plasmon resonance analysis

Activity (Homo sapiens): Active
Structure (SMILES): C=CC[C@H](C)[C@@H](O)C[C@@H]1C[C@H]2O[C@H](/C=C(C)/C=C/C[C@H]3C[C@@H]4O[C@@H](/C=C/CCCCC)C[C@@H]4O3)C[C@H]2O1
IC50 [1]: 0.1 µg/mL (≈ 0.194 µM) | IC50 (A549): 0.6 µg/mL (≈ 1.17 µM) | inhibition of growth at 1 µg/mL (HeLa): 20% | T/C (P388): 120%
